Data taken from ChEMBL document CHEMBL4680157, “Design, synthesis and biological evaluation of novel TRβ selective agonists sustained by ADME-toxicity analysis” (Eur J Med Chem, 2020).
Calls of active or inactive are those of the source. No cut-off for these calls is given here.

Key:
HDAC6 = molecular target: T1, HDAC6 (Homo sapiens, UniProt Q9UBN7); experiment: Inhibition of HDAC6 (unknown origin) at 10 uM relative to control
T1 sequence (Q9UBN7 whole entry): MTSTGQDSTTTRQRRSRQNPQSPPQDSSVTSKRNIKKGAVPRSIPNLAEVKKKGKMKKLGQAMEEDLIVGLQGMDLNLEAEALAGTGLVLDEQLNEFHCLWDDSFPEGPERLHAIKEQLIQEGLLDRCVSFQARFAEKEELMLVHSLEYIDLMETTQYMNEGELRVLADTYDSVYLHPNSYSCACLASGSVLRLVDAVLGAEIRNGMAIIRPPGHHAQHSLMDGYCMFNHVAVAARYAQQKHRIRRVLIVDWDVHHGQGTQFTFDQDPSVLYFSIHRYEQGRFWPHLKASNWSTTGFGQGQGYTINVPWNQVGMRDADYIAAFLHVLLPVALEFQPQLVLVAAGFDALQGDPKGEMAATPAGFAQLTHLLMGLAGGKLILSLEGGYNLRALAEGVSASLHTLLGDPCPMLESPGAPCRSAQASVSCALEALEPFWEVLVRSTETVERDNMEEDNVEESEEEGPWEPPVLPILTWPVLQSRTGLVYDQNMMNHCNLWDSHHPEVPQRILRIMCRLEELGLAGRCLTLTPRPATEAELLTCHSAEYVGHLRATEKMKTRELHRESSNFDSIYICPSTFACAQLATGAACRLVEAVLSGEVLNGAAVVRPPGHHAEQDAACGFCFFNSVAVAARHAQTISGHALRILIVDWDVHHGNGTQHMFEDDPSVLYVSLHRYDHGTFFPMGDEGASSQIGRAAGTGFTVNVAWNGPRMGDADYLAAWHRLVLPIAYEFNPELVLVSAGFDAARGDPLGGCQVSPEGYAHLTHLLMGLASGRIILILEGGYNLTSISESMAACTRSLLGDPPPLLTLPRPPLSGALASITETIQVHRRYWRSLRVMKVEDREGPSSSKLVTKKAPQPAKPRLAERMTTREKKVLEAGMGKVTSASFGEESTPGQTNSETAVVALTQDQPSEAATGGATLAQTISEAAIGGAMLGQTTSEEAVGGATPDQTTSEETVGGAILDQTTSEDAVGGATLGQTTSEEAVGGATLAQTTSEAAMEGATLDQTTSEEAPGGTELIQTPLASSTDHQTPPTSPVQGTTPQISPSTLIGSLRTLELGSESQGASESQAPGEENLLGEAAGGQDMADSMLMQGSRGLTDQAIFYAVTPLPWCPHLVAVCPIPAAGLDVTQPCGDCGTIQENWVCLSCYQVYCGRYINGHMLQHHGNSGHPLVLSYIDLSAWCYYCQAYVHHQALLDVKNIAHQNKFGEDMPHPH

hERG (KCNH2) = hERG (KCNH2) (Homo sapiens, UniProt Q12809); experiment: Inhibition of human ERG at 10 uM by fluorescence polarization assay relative to control
Chain of hERG (KCNH2) (Q12809 whole entry): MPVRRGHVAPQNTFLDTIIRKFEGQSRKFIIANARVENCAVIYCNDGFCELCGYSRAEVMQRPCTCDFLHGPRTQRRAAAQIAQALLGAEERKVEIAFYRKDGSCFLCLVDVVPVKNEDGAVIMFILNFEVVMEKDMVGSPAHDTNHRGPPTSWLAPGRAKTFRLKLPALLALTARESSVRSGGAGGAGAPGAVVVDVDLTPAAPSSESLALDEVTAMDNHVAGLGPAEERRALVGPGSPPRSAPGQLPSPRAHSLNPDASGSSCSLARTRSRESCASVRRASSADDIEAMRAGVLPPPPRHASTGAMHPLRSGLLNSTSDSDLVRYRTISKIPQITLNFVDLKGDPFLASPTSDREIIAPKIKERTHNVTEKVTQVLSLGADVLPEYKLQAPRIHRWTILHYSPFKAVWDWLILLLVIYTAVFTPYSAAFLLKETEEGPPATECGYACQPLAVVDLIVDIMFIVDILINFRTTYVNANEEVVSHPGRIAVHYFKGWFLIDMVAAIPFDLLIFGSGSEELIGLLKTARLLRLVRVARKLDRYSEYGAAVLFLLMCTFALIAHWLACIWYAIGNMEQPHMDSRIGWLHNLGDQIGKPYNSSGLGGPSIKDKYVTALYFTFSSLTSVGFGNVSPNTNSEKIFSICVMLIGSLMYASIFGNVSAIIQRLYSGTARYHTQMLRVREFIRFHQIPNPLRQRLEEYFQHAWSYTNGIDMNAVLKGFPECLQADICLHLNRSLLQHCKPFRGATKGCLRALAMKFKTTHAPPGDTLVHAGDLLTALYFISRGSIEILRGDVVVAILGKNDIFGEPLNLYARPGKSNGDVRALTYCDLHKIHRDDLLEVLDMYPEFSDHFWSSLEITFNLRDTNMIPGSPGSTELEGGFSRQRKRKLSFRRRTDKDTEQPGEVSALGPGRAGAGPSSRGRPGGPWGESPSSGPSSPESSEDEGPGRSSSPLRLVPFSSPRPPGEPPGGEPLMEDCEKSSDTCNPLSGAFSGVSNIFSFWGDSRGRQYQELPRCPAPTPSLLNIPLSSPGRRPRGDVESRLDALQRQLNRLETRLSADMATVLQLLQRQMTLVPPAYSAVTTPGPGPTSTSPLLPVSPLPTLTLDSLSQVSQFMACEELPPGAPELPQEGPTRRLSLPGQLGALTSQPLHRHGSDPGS

[1] = Toxicity in F344 rat assessed as effect on serum AST/GOT level at 75 ug per 100 g of body weight, ig administered daily for 3 days (reference value: 153 +/- 11 U/L); conditions: in vivo, po, 72 h, dose 75 µg, time 3 day
[2] = Toxicity in F344 rat assessed as effect on serum bilirubin level at 50 ug per 100 g body weight, ig administered daily for 3 days (reference value: 1.4 +/- 0.2 mg/dl); conditions: in vivo, po, 72 h, dose 50 µg, time 3 day
[3] = Toxicity in F344 rat assessed as effect on serum AST/GOT level at 50 ug per 100 g of body weight, ig administered daily for 3 days (reference value: 153 +/- 11 U/L); conditions: in vivo, po, 72 h, dose 50 µg, time 3 day
[4] = Toxicity in F344 rat assessed as effect on serum bilirubin level at 75 ug per 100 g body weight, ip administered daily for 3 days (reference value: 1.4 +/- 0.2 mg/dl); format: organism-based; conditions: in vivo, 72 h, dose 75 µg, time 3 day
[5] = Toxicity in F344 rat assessed as effect on serum cholesterol level at 75 ug per 100 g body weight, ip administered daily for 3 days (reference value: 67.2 +/- 2.5 mg/dl); format: organism-based; conditions: in vivo, 72 h, dose 75 µg, time 3 day
[6] = Toxicity in F344 rat assessed as increase in heart and body weight ratio at 50 to 100 ug per 100 g body weight, ig administered daily for 3 days; conditions: in vivo, po, 72 h, dose 50-100 µg, time 3 day
[7] = Toxicity in F344 rat assessed as effect on serum ALT/GPT level at 75 ug per 100 g body weight, ip administered daily for 3 days (reference value: 46 +/- 4 U/L); format: organism-based; conditions: in vivo, 72 h, dose 75 µg, time 3 day
[8] = Toxicity in F344 rat assessed as effect on serum glucose level at 100 ug per 100 g body weight, ig administered daily for 3 days (reference value: 151 +/- 13.5 mg/dl); conditions: in vivo, po, 72 h, dose 100 µg, time 3 day
HepG2 = experiment: Induction of lipolysis in human HepG2 cells assessed as reduction in intracellular lipid accumulation at 1 to 10 uM incubated for 24 hrs by Oil Red O staining based spectrophotometric analysis; format: functional, cell-based; conditions: dose 1-10 µM
[9] = Toxicity in F344 rat assessed as effect on serum glucose level at 75 ug per 100 g body weight, ig administered daily for 3 days (reference value: 151 +/- 13.5 mg/dl); conditions: in vivo, po, 72 h, dose 75 µg, time 3 day
[10] = Toxicity in F344 rat assessed as effect on serum cholesterol level at 50 ug per 100 g body weight, ig administered daily for 3 days (reference value: 67.2 +/- 2.5 mg/dl); conditions: in vivo, po, 72 h, dose 50 µg, time 3 day
[11] = molecular target: AMP-activated protein kinase, AMPK (Homo sapiens) (UniProt P54646+O43741+P54619+Q9UGJ0+Q9Y478+Q13131+Q9UGI9); experiment: Activation of AMPK in human HepG2 cells assessed as ratio of phosphorylated ACC at 10 uM measured after 24 hrs by Western blot analysis; format: cell-based; conditions: filed as activator
[12] = Toxicity in F344 rat assessed as effect on serum ALT/GPT level at 50 ug per 100 g body weight, ig administered daily for 3 days (reference value: 46 +/- 4 U/L); conditions: in vivo, po, 72 h, dose 50 µg, time 3 day
[13] = Toxicity in F344 rat assessed as effect on serum glucose level at 50 ug per 100 g body weight, ig administered daily for 3 days (reference value: 151 +/- 13.5 mg/dl); conditions: in vivo, po, 72 h, dose 50 µg, time 3 day
[14] = Toxicity in F344 rat assessed as effect on serum cholesterol level at 75 ug per 100 g body weight, ig administered daily for 3 days (reference value: 67.2 +/- 2.5 mg/dl); conditions: in vivo, po, 72 h, dose 75 µg, time 3 day
[15] = Toxicity in F344 rat assessed as effect on serum AST/GOT level at 75 ug per 100 g body weight, ip administered daily for 3 days (reference value: 153 +/- 11 U/L); format: organism-based; conditions: in vivo, 72 h, dose 75 µg, time 3 day
[16] = Toxicity in F344 rat assessed as increase in heart weight at 50 to 100 ug per 100 g body weight, ig administered daily for 3 days; conditions: in vivo, po, 72 h, dose 50-100 µg, time 3 day

inhibition at 10 µM (HDAC6)	Activity [11]	Structure (SMILES)	inhibition at 10 µM (hERG (KCNH2))	Activity [1]	Activity [2]	Activity [3]	Activity [4]	Activity [5]	Activity [6]	Activity [7]	Activity [8]	Activity (HepG2)	Activity [9]	Activity [10]	Activity [12]	Activity [13]	Activity [14]	Activity [15]	Activity [16]
< 50%	–	Cc1cc(OCC(=O)O)cc(C)c1Cc1ccc(O)cc1	< 25%	–	–	–	–	–	–	–	–	–	–	–	–	–	–	–	–
< 50%	Active	Cc1cc(OCC(=O)O)cc(C)c1Cc1ccc(N)c(C(C)C)c1	< 40%	119 U/L	1.3 mg/dL	134 U/L	1.1 mg/dL	69.6 mg/dL	Non-Toxic	36 U/L	166 mg/dL	Active	153 mg/dL	69.5 mg/dL	41 U/L	136 mg/dL	68.6 mg/dL	123 U/L	Non-Toxic
< 50%	Active	CC(=O)Nc1ccc(Cc2c(C)cc(OCC(=O)O)cc2C)cc1C(C)C	< 25%	133 U/L	1.1 mg/dL	141 U/L	1.5 mg/dL	71.4 mg/dL	Non-Toxic	38 U/L	164 mg/dL	Active	132 mg/dL	68 mg/dL	46 U/L	129 mg/dL	71.4 mg/dL	134 U/L	Non-Toxic
